Measured values reported in patent US6548448B2, “Delivery systems for cyclopropenes” (Rohm and Haas Company, priority 2001, dated 2003).

How the values were obtained:
Format in all cases: physicochemical
[1] = 1-MCP release from polyvinyl alcohol (PVA) film containing 1-MCP/α-cyclodextrin complex in humid chamber; conditions: for Concentration of 1-MCP: PVA film with 0.05 g complex, 36 liter high humidity chamber
Experimental: (§1) 1-MCP/α-cyclodextrin complex powder (0.05 grams) was heat sealed into a 2×3.5 inch piece of 1.5 mil thick M 7061 polyvinyl alcohol (PVA) film (Chris Craft Corp.) using a Sealmaster 420 (Audion Elektro) heat sealer. This film was placed into a 36 liter volume high humidity chamber. […] The 1-MCP release characteristics of the film versus time were determined by periodically analyzing the atmosphere in the chamber for 1-MCP. The analysis method was gas chromatography using a flame ionization detector.

[2] = 1-MCP release from low density polyethylene (LDPE) film containing 1-MCP/α-cyclodextrin complex in humid chamber; conditions: for Concentration of 1-MCP: LDPE film with 0.05 g complex, 36 liter high humidity chamber
Experimental: as §1, with “1-MCP/α-CD” for “1-MCP/α-cyclodextrin”, “5.5×12” for “2×3.5”, “2.0” for “1.5”, “low density polyethylene (LDPE) film.” for “M 7061 polyvinyl alcohol (PVA) film (Chris Craft Corp.) using a Sealmaster 420 (Audion Elektro) heat sealer.”

[3] = 1-MCP release from waxy, cast (Parafilm M) film containing 1-MCP/α-cyclodextrin complex in humid chamber; conditions: for Concentration of 1-MCP: waxy cast Parafilm M film with 0.5 g complex, 36 liter high humidity chamber
Experimental: Parafilm® “M” film (2.0 grams, American National Can Corp.) was dissolved/dispersed in 12 grams of hexane. 1-MCP/α-cyclodextrin complex powder (0.5 grams) was mixed into this suspension and then the whole mixture was poured into a 3.5 inch diameter glass crystallizing dish to dry. The dish was placed in a 50° C. oven for 5 hrs. to dry and the resulting cast film was removed from the dish. This film was placed into a 36 liter volume high humidity chamber being careful not to allow the film to contact any water directly. The 1-MCP release characteristics of the film versus time were determined by periodically analyzing the atmosphere in the chamber for 1-MCP. The analysis method was gas chromatography using a flame ionization detector.

[4] = 1-MCP release from high density polyethylene (HDPE) film exposed to 1-MCP gas, sealed jar; conditions: for Concentration of 1-MCP: HDPE film exposed to 2206 ppm 1-MCP for 2 hours, sealed quart jar
Experimental: (§2) High density polyethylene (HDPE) film of 2 mil thickness measuring 4.5×2.75 inches was exposed to 2206 ppm 1-MCP (vol/vol) in the atmosphere of a sealed quart jar for 2 hours. The film was removed, allowed to stand in air for 5 minutes and then sealed in a fresh quart jar equipped with a sampling septum. The 1-MCP release characteristics of the film versus time were determined by periodically analyzing the atmosphere in the jar for 1-MCP. The analysis method was gas chromatography using a flame ionization detector.

[5] = 1-MCP release from wax paper exposed to 1-MCP gas, sealed jar; conditions: for Concentration of 1-MCP: wax paper exposed to 2206 ppm 1-MCP for 5 hours, sealed quart jar
Experimental: as §2, with “Wax paper measuring” for “High density polyethylene (HDPE) film of 2 mil thickness measuring”, “for 5” for “for 2”

## CC1=CC1 [Compound 1-MCP, 1-methylcyclopropene]
[1]; 0 min.
  Concentration of 1-MCP: 0.0 ppm
[1]; 5 min.
  Concentration of 1-MCP: 0.9 ppm
[1]; 25 min.
  Concentration of 1-MCP: 2.2 ppm
[1]; 45 min.
  Concentration of 1-MCP: 3.2 ppm
[1]; 90 min.
  Concentration of 1-MCP: 6.0 ppm
[1]; 20 hr.
  Concentration of 1-MCP: 17.0 ppm
[1]; PVA film, high humidity chamber, no direct water contact
  1-MCP release from the film (in words): released from the PVA film just by the water provided by humidity
[2]; 0 min.
  Concentration of 1-MCP: 0.0 ppm
[2]; 5 min.
  Concentration of 1-MCP: 2.0 ppm
[2]; 20 min.
  Concentration of 1-MCP: 7.7 ppm
[2]; 40 min.
  Concentration of 1-MCP: 14.5 ppm
[2]; 60 min.
  Concentration of 1-MCP: 19.0 ppm
[2]; LDPE film, high humidity chamber, no direct water contact
  1-MCP release from the film (in words): released from the LDPE film just by the water provided by humidity
[3]; 0 min.
  Concentration of 1-MCP: 0.0 ppm
[3]; 5 min.
  Concentration of 1-MCP: 0.02 ppm
[3]; 20 min.
  Concentration of 1-MCP: 0.1 ppm
[3]; 35 min.
  Concentration of 1-MCP: 0.3 ppm
[3]; 60 min.
  Concentration of 1-MCP: 0.8 ppm
[3]; 90 min.
  Concentration of 1-MCP: 1.4 ppm
[3]; waxy cast film, high humidity chamber, no direct water contact
  1-MCP release from the film (in words): released from the LDPE film just by the water provided by humidity
[4]; 0 sec.
  Concentration of 1-MCP: 0.0 ppm
[4]; 0.5 min.
  Concentration of 1-MCP: 3.0 ppm
[4]; 5 min.
  Concentration of 1-MCP: 8.0 ppm
[4]; 15 min.
  Concentration of 1-MCP: 9.6 ppm
[4]; 60 min.
  Concentration of 1-MCP: 11.0 ppm
[4]; HDPE film, sealed jar
  1-MCP release from the film (in words): significant release
[5]; 0 min.
  Concentration of 1-MCP: 0.0 ppm
[5]; 0.5 min.
  Concentration of 1-MCP: 0.3 ppm
[5]; 5 min.
  Concentration of 1-MCP: 0.9 ppm
[5]; 15 min.
  Concentration of 1-MCP: 0.9 ppm
[5]; 60 min.
  Concentration of 1-MCP: 0.9 ppm
[5]; wax paper, sealed jar
  1-MCP release from the film (in words): less release than Example 4, but still a significant amount
